Article PMC6648289 (ACS Omega, 2019)

Legend:
Assay in all cases: FLIPR membrane potential
Assay type in all cases: cell-based
Details in all cases: concentration used for PAM testing
[1] = target: T1, human α1β2δ GABAA receptor (Homo sapiens, UniProt O14764+P14867+P47870)
T1 sequence (P14867 28-456): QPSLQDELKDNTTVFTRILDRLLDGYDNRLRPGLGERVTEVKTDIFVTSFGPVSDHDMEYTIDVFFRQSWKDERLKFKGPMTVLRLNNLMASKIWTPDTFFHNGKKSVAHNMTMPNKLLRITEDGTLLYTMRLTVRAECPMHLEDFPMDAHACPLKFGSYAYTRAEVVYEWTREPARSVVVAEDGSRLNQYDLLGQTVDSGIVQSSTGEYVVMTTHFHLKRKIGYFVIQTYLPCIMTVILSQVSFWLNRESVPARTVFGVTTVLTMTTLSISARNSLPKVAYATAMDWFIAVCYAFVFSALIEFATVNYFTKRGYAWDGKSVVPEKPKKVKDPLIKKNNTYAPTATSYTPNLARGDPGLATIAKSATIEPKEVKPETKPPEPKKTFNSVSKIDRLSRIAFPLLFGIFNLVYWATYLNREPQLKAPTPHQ
T1 sequence (P47870 25-512 limits assumed): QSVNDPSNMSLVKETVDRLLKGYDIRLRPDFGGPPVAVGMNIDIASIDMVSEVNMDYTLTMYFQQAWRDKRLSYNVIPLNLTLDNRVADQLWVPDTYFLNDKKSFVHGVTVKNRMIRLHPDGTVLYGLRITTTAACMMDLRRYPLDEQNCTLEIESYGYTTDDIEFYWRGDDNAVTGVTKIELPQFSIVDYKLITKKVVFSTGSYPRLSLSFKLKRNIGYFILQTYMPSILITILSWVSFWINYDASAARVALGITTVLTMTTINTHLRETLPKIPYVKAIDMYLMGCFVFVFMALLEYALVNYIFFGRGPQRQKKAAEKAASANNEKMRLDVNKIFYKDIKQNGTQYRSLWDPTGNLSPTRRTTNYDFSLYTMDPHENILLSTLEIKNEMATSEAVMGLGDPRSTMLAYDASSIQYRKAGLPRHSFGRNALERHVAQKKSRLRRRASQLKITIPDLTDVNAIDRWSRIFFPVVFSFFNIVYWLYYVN
T1 sequence (O14764 17-452 limits assumed): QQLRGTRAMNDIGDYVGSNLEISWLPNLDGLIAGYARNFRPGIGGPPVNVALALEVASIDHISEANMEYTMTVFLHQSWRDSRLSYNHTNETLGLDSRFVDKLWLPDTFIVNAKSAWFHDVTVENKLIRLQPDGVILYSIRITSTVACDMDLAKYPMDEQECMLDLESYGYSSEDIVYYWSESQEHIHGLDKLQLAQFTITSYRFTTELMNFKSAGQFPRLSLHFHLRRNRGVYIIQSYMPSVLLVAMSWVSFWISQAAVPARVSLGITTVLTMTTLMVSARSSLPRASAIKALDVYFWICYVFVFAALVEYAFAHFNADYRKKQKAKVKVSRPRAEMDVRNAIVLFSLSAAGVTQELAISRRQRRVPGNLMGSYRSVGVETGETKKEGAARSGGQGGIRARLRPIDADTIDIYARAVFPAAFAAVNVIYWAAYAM

[2] = target: human α4β2δ GABAA receptor (Homo sapiens, UniProt O14764+P47870+P48169)
human α4β2δ GABAA receptor, sequence (P48169 36-554, one chain of several): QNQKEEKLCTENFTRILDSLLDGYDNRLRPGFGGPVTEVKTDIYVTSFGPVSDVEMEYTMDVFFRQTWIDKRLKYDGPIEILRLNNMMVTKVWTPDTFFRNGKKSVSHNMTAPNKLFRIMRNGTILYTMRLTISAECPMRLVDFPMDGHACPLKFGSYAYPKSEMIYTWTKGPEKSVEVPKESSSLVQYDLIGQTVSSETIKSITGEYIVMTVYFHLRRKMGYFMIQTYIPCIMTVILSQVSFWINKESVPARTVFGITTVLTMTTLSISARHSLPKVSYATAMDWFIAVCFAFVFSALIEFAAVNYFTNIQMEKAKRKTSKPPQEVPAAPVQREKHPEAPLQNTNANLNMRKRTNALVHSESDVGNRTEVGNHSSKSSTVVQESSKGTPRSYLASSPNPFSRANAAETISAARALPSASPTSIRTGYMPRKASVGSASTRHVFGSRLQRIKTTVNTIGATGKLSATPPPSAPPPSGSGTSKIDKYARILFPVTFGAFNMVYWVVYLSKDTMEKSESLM

[3] = target: human α6β2δ GABAA receptor (Homo sapiens, UniProt O14764+P47870+Q16445)
human α6β2δ GABAA receptor, sequence (Q16445 20-453, one chain of several): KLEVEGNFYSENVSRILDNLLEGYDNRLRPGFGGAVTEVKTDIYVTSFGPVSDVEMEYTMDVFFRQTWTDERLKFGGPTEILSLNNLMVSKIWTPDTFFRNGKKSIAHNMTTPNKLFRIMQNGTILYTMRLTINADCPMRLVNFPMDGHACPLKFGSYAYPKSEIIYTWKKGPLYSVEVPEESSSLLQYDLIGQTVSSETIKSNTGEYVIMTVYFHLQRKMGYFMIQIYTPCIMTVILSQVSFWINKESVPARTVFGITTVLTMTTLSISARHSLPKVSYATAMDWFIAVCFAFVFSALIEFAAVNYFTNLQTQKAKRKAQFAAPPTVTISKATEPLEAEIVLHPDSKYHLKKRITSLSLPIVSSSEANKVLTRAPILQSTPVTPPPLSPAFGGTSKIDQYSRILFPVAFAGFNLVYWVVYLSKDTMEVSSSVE

[4] = target: human α6β2γ2s GABAA receptor (Homo sapiens, UniProt P18507+P47870+Q16445)
human α6β2γ2s GABAA receptor, sequence (Q16445 20-453, one chain of several): as above
human α6β2γ2s GABAA receptor, sequence (P18507 40-467 isoform P18507-1 limits assumed, one chain of several): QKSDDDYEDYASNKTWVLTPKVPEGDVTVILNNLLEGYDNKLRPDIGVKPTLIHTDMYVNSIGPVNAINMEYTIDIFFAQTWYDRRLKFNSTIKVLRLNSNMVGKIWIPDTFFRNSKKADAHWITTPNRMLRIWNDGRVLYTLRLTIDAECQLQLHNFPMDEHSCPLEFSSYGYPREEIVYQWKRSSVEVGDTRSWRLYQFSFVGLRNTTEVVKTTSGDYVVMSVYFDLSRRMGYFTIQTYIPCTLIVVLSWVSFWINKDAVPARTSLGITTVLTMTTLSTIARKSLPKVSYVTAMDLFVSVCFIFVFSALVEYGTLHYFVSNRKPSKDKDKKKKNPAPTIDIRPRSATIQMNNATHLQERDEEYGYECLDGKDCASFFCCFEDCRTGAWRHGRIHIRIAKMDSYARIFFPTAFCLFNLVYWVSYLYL

## NCCCC(=O)O [GABA, γ-Aminobutyric acid]
[1]
  GABA EC20: 1600 to 2000 nM
[2]
  GABA EC20: 80 nM
[3]
  GABA EC20: 50 nM
[4]
  GABA EC20: 100 to 200 nM
